This data set is described as follows: Toxicity in mouse assessed as lethal dose administered intraperitoneally for 16 days by Karber's method. The following applies: in vivo, route ip, time 16 day.

With `COc1ccc(C(=O)Nc2cc(-c3ccnc(N4CCC(O)CC4)c3)ccn2)cc1`, the LD50 (commonly the dose at which mortality reaches 50%) at 384 h amounted to 537 mg/kg.

The record behind these values is ChEMBL document CHEMBL5634134, “Design, synthesis, and biological evaluation of novel 4,4'-bipyridine derivatives acting as CDK9-Cyclin T1 protein-protein interaction inhibitors against triple-negative breast cancer” (Eur J Med Chem, 2023).
